What was measured:
Aβ42 = conditions: cited from earlier work
secreted Aβ40 and Aβ42 = test: Aβ ELISA in CHO-APP cells treated with compounds; type: cell-based, hamster (CHO) cells expressing human APP; conditions: 50 μg/ml, 6 and 24 hours, normalized to full-length APP and vehicle-treated cells
Protocol: CHO cells stably transfected with human APP751 (CHO-APP cells) were treated with compounds as described above. The compounds were used at 50 μg/ml for 6 and 24 hours. Levels of secreted Aβ40 and Aβ42 were determined using a commercial Aβ ELISA kit (Biosource) and normalized to cell-associated full-length APP. The relative levels of Aβ40 (white bar) and Aβ42 (black bar) were normalized to values obtained from vehicle-treated cells and are shown as % to control. […] (D10=20(S), 24(R)-epoxydammarane-3β,25-diol; D2=Dammar-24-ene-3β,20(S)-diol; D3=reduction mixture of dammar resin by NaBH4; D5=Dammar resin mixture; D6=dipterocarpol; D7=t-butylhydroperoxide-oxidized products of D3. D8=3-acetyl Dammar-24-ene-3A, 20(S)-diol; D9=3-acetyl 20(S),24(R)-epoxydammarane-3β,25-diol; D10=20(S),24(R)-epoxydammarane-3×, 25-diol; D11=Dammar-24-ene-3×, 20(S)-diol; D12=tetraacetyl 20-hydroxydammar-24-ene-3-yl-glucopyranoside; D13=20-hydroxydammar-24-ene-3-yl-glucopyranoside; D15=20(S), 24(R)-epoxydammarane-3-oxo, 25-ol.

γ-secretase complex = conditions: partially purified γ-secretase complex; cited from earlier work

Compound: CC(C)=CCC[C@](C)(O)[C@H]1CC[C@]2(C)[C@@H]1[C@H](O)C[C@@H]1[C@@]3(C)CC[C@H](O[C@@H]4O[C@H](CO)[C@@H](O)[C@H](O)[C@H]4O[C@@H]4O[C@H](CO)[C@@H](O)[C@H](O)[C@H]4O)C(C)(C)[C@@H]3CC[C@]12C [(20S)Rg3]
- production of Aβ42 in mammalian cells (Aβ42; mammalian cells): lower the production of Aβ42 in mammalian cells

Compound: CC(C)(O)[C@H]1CC[C@@](C)([C@H]2CC[C@]3(C)[C@@H]2CC[C@@H]2[C@@]4(C)CC[C@H](O)C(C)(C)[C@@H]4CC[C@]23C)O1 [Compound D1, 20(S), 24(R)-epoxydammarane-3β, 25-diol]
- selective potentiation of Aβ42 production (secreted Aβ40 and Aβ42): selectively potentiated Aβ42 production

Compound: CC(C)=CCCC(C)(O)C1CC[C@]2(C)C1CCC1[C@@]3(C)CC[C@H](O)C(C)(C)C3CC[C@]12C (stereo partly drawn) [Compound D2, Dammar-24-ene-3β,20(S)-diol]
- selective potentiation of Aβ42 production (secreted Aβ40 and Aβ42): selectively potentiated Aβ42 production

Compound: CC(C)=CCC[C@](C)(O)[C@H]1CC[C@]2(C)[C@@H]1CC[C@@H]1[C@@]3(C)CCC(=O)C(C)(C)[C@@H]3CC[C@]12C [Compound D6, dipterocarpol]
- Aβ-lowering activity (levels of secreted Aβ40 and Aβ42, % to control) (secreted Aβ40 and Aβ42): exhibited Aβ-lowering activities

Compound: CC(=O)O[C@H]1CC[C@]2(C)[C@H]3CC[C@@H]4[C@@H]([C@]5(C)CC[C@H](C(C)(C)O)O5)CC[C@@]4(C)[C@]3(C)CC[C@H]2C1(C)C [Compound D9, 3-acetyl 20(S),24(R)-epoxydammarane-3β,25-diol]
- selective potentiation of Aβ42 production (secreted Aβ40 and Aβ42): selectively potentiated Aβ42 production

Compound: CC(C)(O)[C@H]1CC[C@@](C)([C@H]2CC[C@]3(C)[C@@H]2CC[C@@H]2[C@@]4(C)CC[C@@H](O)C(C)(C)[C@@H]4CC[C@]23C)O1 [Compound D10, 20(S),24(R)-epoxydammarane-3 cc, 25-diol]
- Aβ-lowering activity (levels of secreted Aβ40 and Aβ42, % to control) (secreted Aβ40 and Aβ42): exhibited Aβ-lowering activities

Compound: CC(C)=CCCC(C)(O)C1CC[C@]2(C)C1CCC1[C@@]3(C)CC[C@@H](O)C(C)(C)C3CC[C@]12C (stereo partly drawn) [Compound D11, Dammar-24-ene-3α,20(S)-diol]
- Aβ-lowering activity (levels of secreted Aβ40 and Aβ42, % to control) (secreted Aβ40 and Aβ42): exhibited Aβ-lowering activities

Compound: CC(C)(O)C1CCC(C)(C2CCC3(C)C2CCC2C4(C)CCC(=O)C(C)(C)C4CCC23C)O1 [Compound D15, 20(S), 24(R)-epoxydammarane-3-oxo, 25-ol]
- Aβ-lowering activity (levels of secreted Aβ40 and Aβ42, % to control) (secreted Aβ40 and Aβ42): exhibited Aβ-lowering activities

Compound: CC(C)=CCC[C@](C)(O[C@@H]1O[C@H](CO)[C@@H](O)[C@H](O)[C@H]1O)[C@H]1CC[C@]2(C)[C@@H]1[C@H](O)C[C@@H]1[C@@]3(C)CC[C@H](O)C(C)(C)[C@@H]3[C@@H](O[C@@H]3O[C@H](CO)[C@@H](O)[C@H](O)[C@H]3O)C[C@]12C [Rg1]
- amyloid-reducing activity in vitro (Aβ42; in vitro): no amyloid-reducing activity in vitro

Compound: CC(C)=CC/C=C(\C)[C@H]1CC[C@]2(C)[C@@H]1[C@H](O)C[C@@H]1[C@@]3(C)CC[C@H](O[C@@H]4O[C@H](CO)[C@@H](O)[C@H](O)[C@H]4O[C@@H]4O[C@H](CO)[C@@H](O)[C@H](O)[C@H]4O)C(C)(C)[C@@H]3CC[C@]12C [Rg5]
- production of Aβ42 in mammalian cells (Aβ42; mammalian cells): lower the production of Aβ42 in mammalian cells

Compound: C=C(CCC=C(C)C)[C@H]1CC[C@]2(C)[C@@H]1[C@H](O)C[C@@H]1[C@@]3(C)CC[C@H](O[C@@H]4O[C@H](CO)[C@@H](O)[C@H](O)[C@H]4O[C@@H]4O[C@H](CO)[C@@H](O)[C@H](O)[C@H]4O)C(C)(C)[C@@H]3CC[C@]12C [Rk1]
- production of Aβ42 in mammalian cells (Aβ42; mammalian cells): lower the production of Aβ42 in mammalian cells
- relative effectiveness in reducing Aβ42 levels (Aβ42; mammalian cells): most effective in reducing Aβ42 levels
- Aβ42 production in cell-free assay (γ-secretase complex): inhibit the Aβ42 production

Compound: tetraacetyl 20-hydroxydammar-24-ene-3-yl-glucopyranoside [Compound D12]
- Aβ-lowering activity (levels of secreted Aβ40 and Aβ42, % to control) (secreted Aβ40 and Aβ42): exhibited Aβ-lowering activities
